According to patent publication US11492348B2, “Tri-substituted aryl and heteroaryl derivatives as modulators of PI3-kinase and autophagy pathways” (Neuropore Therapies, Inc., priority 2018, dated 2022):
pIC50: −log10 of the molar value. Where a name gives a salt, the structure may show the parent alone.

What was measured:
[1] = tested on: (Ser-473) pAKT in B103 (Rat Neuroblastoma) cells; assay: pAKT protocol: loss of (Ser-473) pAKT by AlphaScreen in insulin-stimulated B103 cells; assay type: cell-based; settings: (Ser-473) pAKT/total AKT IC50, 2-hour pretreatment, 2.5 μg/mL insulin 20 minutes
Method: Inhibition of the PI3K-AKT-mTOR pathway was measured by quantifying the loss of (Ser-473) pAKT using AlphaScreen (Perkin Elmer). B103 (Rat Neuroblastoma) cells were seeded in serum containing medium (High Glucose DMEM (-Phenol Red)+10% FBS+2× Glutamax+1 mM Sodium Pyruvate+10 mM HEPES+1× Non-Essential Amino Acids+1× Pen/Strep) on a 96-well tissue culture treated plate and grown for 20 hours. Cells were then serum starved in serum free medium (High Glucose DMEM (-Phenol Red)+1× Glutamax+1 mM Sodium Pyruvate+1× Pen/Strep) for 6 hours prior to a 2-hour pretreatment with inhibitors of the pathway, including reference inhibitor LY294002. These inhibitors were prepared at a 200× final concentration as a 6-point, 1:3 serial dilution in DMSO series, with DMSO as the 7th point. The inhibitors were then diluted in experimental medium (High Glucose DMEM (-Phenol Red)+1× Glutamax+1 mM Sodium Pyruvate+1× Pen/Strep+25 mM HEPES+0.1% BSA) and combined with the cells at 1× final concentration in 0.5% DMSO. […] Cells were promptly lysed using Perkin Elmer proprietary lysis buffer and the (Ser-473) pAKT and total AKT contained in the lysate was measured by AlphaScreen. In AlphaScreen, donor beads were coated with streptavidin to capture one of the antibodies, which is biotinylated. Acceptor beads were coated with Protein A to immobilize the other antibody. In the presence of target protein, the two antibodies bring the donor and acceptor beads close together, generating signal. The amount of light emission is directly proportional to the amount of target protein present in the sample. For each inhibitor tested: the ratio of measured (Ser-473) pAKT/totalAKT was plotted in GraphPad Prism as a 7-point, non-linear regression, 4-parameter curve with bottom constrained to reference control bottom and unconstrained top anchored to DMSO.

mTor kinase = mTor kinase (Homo sapiens (Human), UniProt P42345); assay: mTor assay (33P-ATP filter-binding kinase assay); assay type: biochemical; settings: 2 hours at room temperature
Method: The substrate was prepared in base reaction buffer (20 mM Hepes (pH 7.5), 10 mM MgCl2, 1 mM EGTA, 0.02% Brij35, 0.02 mg/ml BSA, 0.1 mM Na3VO4, 2 mM DTT, 1% DMSO), and required cofactors were added to the substrate solution. The mTor kinase was delivered into the substrate solution, and the solution was gently mixed. Testing compounds were dissolved in 100% DMSO to specific concentration. The serial dilution was conducted by Integra Viaflo Assist in DMSO. The compounds were delivered into the kinase reaction mixture by Acoustic technology (Echo550; nanoliter range), and the reaction mixture was incubated for 20 min at room temperature. Then, 33P-ATP (Specific activity 10 μCi/μl) was delivered into the reaction mixture to initiate the reaction. The reaction mixture was incubated for 2 hours at room temperature. Radioactivity was detected by a filter-binding method. Kinase activity data were expressed as the percent remaining kinase activity in test samples compared to vehicle (dimethyl sulfoxide) reactions. IC50 values and curve fits were obtained using Prism (GraphPad Software).

PI3Kα = PI3Kα (Homo sapiens (Human), UniProt P42336); assay: Inhibition of PI3Kα (ADP-Glo kinase activity assay, ATP to ADP conversion); assay type: biochemical; settings: 25 μM PIP2:PS, 60 μM ATP, 30 min reaction, luminescence
Summary of the method: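 Recombinant active PI3Kα (1.1 nM) in HEPES pH 7.5 buffer with 6 mM MgCl2 and 8 mM DTT was preincubated with compound for 0 or 3 h. The reaction ran for 30 min with 25 µM PIP2:PS and 60 µM ATP, and ADP formation was read by ADP-Glo luminescence. IC50 came from a 12-point, 1:3 series fitted with a 4-parameter model, bottom fixed to reference inhibitor controls and top floating.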

PI3Kα, sequence (P42336 whole entry): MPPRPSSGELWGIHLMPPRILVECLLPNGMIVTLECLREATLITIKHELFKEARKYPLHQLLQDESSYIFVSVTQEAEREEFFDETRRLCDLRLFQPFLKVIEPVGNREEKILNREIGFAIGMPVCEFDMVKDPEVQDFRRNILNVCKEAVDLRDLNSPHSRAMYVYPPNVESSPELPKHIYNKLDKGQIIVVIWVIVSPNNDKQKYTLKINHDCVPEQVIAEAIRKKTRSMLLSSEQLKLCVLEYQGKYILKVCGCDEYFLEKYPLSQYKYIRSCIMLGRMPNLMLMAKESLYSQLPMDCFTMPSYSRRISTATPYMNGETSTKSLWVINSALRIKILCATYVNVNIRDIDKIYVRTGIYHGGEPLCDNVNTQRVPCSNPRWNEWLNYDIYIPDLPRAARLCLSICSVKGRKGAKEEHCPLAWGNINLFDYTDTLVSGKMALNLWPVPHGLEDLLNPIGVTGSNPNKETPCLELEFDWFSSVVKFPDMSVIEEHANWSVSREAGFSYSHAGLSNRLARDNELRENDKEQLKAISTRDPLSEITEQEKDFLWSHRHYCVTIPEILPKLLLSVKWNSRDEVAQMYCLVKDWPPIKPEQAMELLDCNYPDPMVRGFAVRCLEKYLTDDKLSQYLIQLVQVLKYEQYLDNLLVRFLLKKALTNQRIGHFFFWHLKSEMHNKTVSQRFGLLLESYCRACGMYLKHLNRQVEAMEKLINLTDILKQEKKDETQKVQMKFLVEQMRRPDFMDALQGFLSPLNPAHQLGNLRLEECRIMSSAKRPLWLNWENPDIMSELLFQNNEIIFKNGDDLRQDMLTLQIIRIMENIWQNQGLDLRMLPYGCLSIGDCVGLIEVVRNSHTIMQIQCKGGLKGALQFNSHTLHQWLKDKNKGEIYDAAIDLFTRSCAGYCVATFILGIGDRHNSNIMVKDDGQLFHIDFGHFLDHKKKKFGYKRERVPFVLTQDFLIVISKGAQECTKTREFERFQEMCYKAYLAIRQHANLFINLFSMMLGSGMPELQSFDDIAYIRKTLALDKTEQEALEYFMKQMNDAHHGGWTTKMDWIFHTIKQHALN
PI3Kα, sequence (P27986 whole entry partner): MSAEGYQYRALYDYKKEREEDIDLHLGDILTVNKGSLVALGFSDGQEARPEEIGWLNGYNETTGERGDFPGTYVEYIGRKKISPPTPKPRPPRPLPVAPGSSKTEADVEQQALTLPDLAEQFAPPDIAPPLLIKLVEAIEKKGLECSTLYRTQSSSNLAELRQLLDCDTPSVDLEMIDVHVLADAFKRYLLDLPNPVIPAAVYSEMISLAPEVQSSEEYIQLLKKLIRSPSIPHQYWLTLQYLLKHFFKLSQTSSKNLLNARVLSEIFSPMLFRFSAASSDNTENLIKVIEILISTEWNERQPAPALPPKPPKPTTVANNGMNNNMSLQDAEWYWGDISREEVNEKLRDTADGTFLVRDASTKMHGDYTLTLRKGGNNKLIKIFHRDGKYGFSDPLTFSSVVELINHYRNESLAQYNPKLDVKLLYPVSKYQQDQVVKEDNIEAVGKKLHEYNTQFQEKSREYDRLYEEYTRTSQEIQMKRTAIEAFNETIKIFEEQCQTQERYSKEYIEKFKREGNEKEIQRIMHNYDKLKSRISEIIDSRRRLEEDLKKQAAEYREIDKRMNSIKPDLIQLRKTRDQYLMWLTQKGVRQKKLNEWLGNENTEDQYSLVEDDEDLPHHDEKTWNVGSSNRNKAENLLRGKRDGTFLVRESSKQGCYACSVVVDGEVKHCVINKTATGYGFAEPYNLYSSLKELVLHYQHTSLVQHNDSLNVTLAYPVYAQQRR

pIC50 [1] | pIC50 (mTor kinase) | PI3Ka IC50 (PI3Kα) [µM] | pIC50 (PI3Kα; read-out: PI3Ka IC50) | Structure (SMILES)
< 4.30 | 5.19 | 0.47 | – | Nc1ncc(-c2cc(N3CCOCC3)cc(S(=O)(=O)Cc3c[nH]c4ccccc34)c2)cn1 [48 (as a TFA salt), 5-(3-(((1H-indol-3-yl)methyl)sulfonyl)-5-morpholinophenyl)pyrimidin-2-amine]
4.70 | 5.46 | – | 6.32 | CS(=O)(=O)Nc1ccc(CS(=O)(=O)c2cc(-c3cnc(N)nc3)cc(N3CCOCC3)c2)cc1 [57 (as a TFA salt), N-(4-(((3-(2-aminopyrimidin-5-yl)-5-morpholinophenyl)sulfonyl)methyl)phenyl) methanesulfonamide]
4.44 | 5.34 | 0.46 | – | Nc1ncc(-c2cc(N3CCOCC3)cc(S(=O)(=O)Cc3c[nH]cn3)c2)cn1 [59 (as a TFA salt), 5-(3-(((1H-imidazol-4-yl)methyl)sulfonyl)-5-morpholinophenyl)pyrimidin-2-amine]
5.12 | 5.70 | 0.61 | – | Nc1ncc(-c2cc(N3CCOCC3)cc(S(=O)(=O)c3ccccc3)c2)cn1 [Compound 1, 5-(3-morpholino-5-(phenylsulfonyl)phenyl)pyrimidin-2-amine]
5.12 | 6.08 | 1.3 | – | Nc1ncc(-c2cc(N3CCOCC3)cc(S(=O)(=O)c3ccc(F)cc3)c2)cn1 [Compound 8, 5-(3-((4-fluorophenyl)sulfonyl)-5-morpholinophenyl)pyrimidin-2-amine]
4.51 | 6.19 | 0.46 | – | N#Cc1ccc(S(=O)(=O)c2cc(-c3cnc(N)nc3)cc(N3CCOCC3)c2)cc1 [Compound 10, 4-((3-(2-aminopyrimidin-5-yl)-5-morpholinophenyl)sulfonyl)benzonitrile]
4.00 | 4.66 | 1.40 | – | Nc1ncc(-c2cc(N3CCOCC3)cc(S(=O)(=O)c3ccc(F)c(Cl)c3)c2)cn1 [Compound 11, 5-(3-((3-chloro-4-fluorophenyl)sulfonyl)-5-morpholinophenyl)pyrimidin-2-amine]
4.00 | 4.00 | 9.0 | – | Cc1cnccc1-c1cc(N2CCOCC2)cc(S(=O)(=O)c2ccccc2)c1 [Compound 12, 4-(3-(3-methylpyridin-4-yl)-5-(phenylsulfonyl)phenyl)morpholine]
4.54 | 5.00 | 0.91 | – | N#Cc1cccc(S(=O)(=O)c2cc(-c3cnc(N)nc3)cc(N3CCOCC3)c2)c1 [Compound 13, 3-((3-(2-aminopyrimidin-5-yl)-5-morpholinophenyl)sulfonyl)benzonitrile]
4.00 | 4.66 | 3.5 | – | Nc1ncc(-c2cc(N3CCOCC3)cc(S(=O)(=O)c3ccc(OC(F)(F)F)cc3)c2)cn1 [Compound 15, 5-(3-morpholino-5-((4-(trifluoromethoxy)phenyl)sulfonyl)phenyl) pyrimidin-2-amine]
4.00 | 4.00 | 1.9 | – | N#Cc1ccc(S(=O)(=O)c2cc(-c3cnc(N)nc3C(F)(F)F)cc(N3CCOCC3)c2)cc1 [Compound 17, 4-((3-(2-amino-4-(trifluoromethyl)pyrimidin-5-yl)-5-morpholinophenyl)sulfonyl)benzonitrile]
4.00 | 4.00 | 3.9 | – | N#Cc1ccc(S(=O)(=O)c2cc(-c3cnc(N)cc3C(F)(F)F)cc(N3CCOCC3)c2)cc1 [Compound 18, 4-((3-(6-amino-4-(trifluoromethyl)pyridin-3-yl)-5-morpholinophenyl)sulfonyl)benzonitrile]
4.43 | 4.80 | 2.9 | – | O=S(=O)(c1ccccc1)c1cc(-c2cnc(NCCO)nc2)cc(N2CCOCC2)c1 [Compound 19, 2-((5-(3-morpholino-5-(phenylsulfonyl)phenyl)pyrimidin-2-yl)amino)ethan-1-ol]
4.00 | 5.00 | 2.7 | – | O=S(=O)(c1ccccc1)c1cc(-c2cnc(NC3CC3)nc2)cc(N2CCOCC2)c1 [Compound 20, N-cyclopropyl-5-(3-morpholino-5-(phenylsulfonyl)phenyl)pyrimidin-2-amine]
4.43 | 5.03 | 2.1 | – | Cc1ccc(S(=O)(=O)c2cc(-c3cnc(N)nc3)cc(N3CCOCC3)c2)cc1 [Compound 21, 5-(3-morpholino-5-tosylphenyl)pyrimidin-2-amine]
4.82 | – | 1.2 | – | Nc1ncc(-c2cc(N3CCOCC3)cc(S(=O)(=O)c3coc4ccccc34)c2)cn1 [Compound 109, 5-(3-(benzofuran-3-ylsulfonyl)-5-morpholinophenyl)pyrimidin-2-amine]
4.65 | – | 2.3 | – | Nc1ncc(-c2cc(N3CCOCC3)cc(S(=O)(=O)c3ccc4ccoc4c3)c2)cn1 [Compound 112, 5-(3-(benzofuran-6-ylsulfonyl)-5-morpholinophenyl)pyrimidin-2-amine]
4.84 | – | 1.1 | – | Nc1ncc(-c2cc(N3CCOCC3)cc(S(=O)(=O)/C=C/c3ccccc3O)c2)cn1 [Compound 113, (E)-2-(2-((3-(2-aminopyrimidin-5-yl)-5-morpholinophenyl)sulfonyl)vinyl)phenol]
4.82 | – | 2.4 | – | Nc1ncc(-c2cc(N3CCOCC3)cc(S(=O)(=O)c3c[nH]c4ccccc34)c2)cn1 [Compound 114, 5-(3-((1H-indol-3-yl)sulfonyl)-5-morpholinophenyl)pyrimidin-2-amine]
4.64 | – | 2.3 | – | Nc1ncc(-c2cc(N3CCOCC3)cc(S(=O)(=O)c3ccc4c(c3)OCC4)c2)cn1 [Compound 116, 5-(3-((2,3-dihydrobenzofuran-6-yl)sulfonyl)-5-morpholinophenyl)pyrimidin-2-amine]
4.76 | – | 3.3 | – | Nc1ncc(-c2cc(N3CCOCC3)cc(S(=O)(=O)c3ccccc3)n2)cn1 [Compound 117, 5-(4-morpholino-6-(phenylsulfonyl)pyridin-2-yl)pyrimidin-2-amine]
4.86 | – | 0.88 | – | Nc1ncc(-c2cc(N3CCOCC3)nc(S(=O)(=O)c3ccccc3)c2)cn1 [Compound 118, 5-(2-morpholino-6-(phenylsulfonyl)pyridin-4-yl)pyrimidin-2-amine]
6.05 | – | 0.12 | – | Nc1ncc(-c2cc(Cc3ccccc3)cc(N3CCOCC3)n2)cn1 [Compound 124, 5-(4-benzyl-6-morpholinopyridin-2-yl)pyrimidin-2-amine]
6.31 | – | 0.27 | – | C=C(c1ccccc1)c1cc(-c2cnc(N)nc2)nc(N2CCOCC2)c1 [Compound 126, 5-(6-morpholino-4-(1-phenylvinyl)pyridin-2-yl)pyrimidin-2-amine]
7.80 | – | 0.017 | – | Nc1ncc(-c2cc(S(=O)(=O)c3ccccc3Cl)cc(N3CCOCC3)n2)cn1 [Compound 139, 5-(4-((2-chlorophenyl)sulfonyl)-6-morpholinopyridin-2-yl)pyrimidin-2-amine]
6.51 | – | 0.12 | – | Nc1ncc(-c2cc(N3CCCc4ccccc43)cc(N3CCOCC3)n2)cn1 [Compound 140, 5-(4-(3,4-Dihydroquinolin-1(2H)-yl)-6-morpholinopyridin-2-yl)pyrimidin-2-amine]
